Experiments:
Lck (p56^lck, active) = molecular target: T1, Lck (p56^lck, active) (Homo sapiens, UniProt P06239); assay: SRC-Inhibitor-Assay (time-resolved fluorescence kinase assay), Lck; format: biochemical; settings: ATP 5 μM, peptide 10 μM, enzyme 2.5 U/ml, pre-incubated 15 min at 15° C.
T1 construct: purchased UBI, Upstate Biotech, Inc
Text: (§1) The activity of the compounds according to this invention as inhibitors for the src-family tyrosine kinases was shown by using the following assay.
(§2) SRC-Inhibitor-Assay Parameters:
(§3) Time-resolved Fluorescence Assay: Reader: Perkin Elmer, Wallac Viktor 1420-040 multilabel counter; Liquid handling system: Beckman Coulter, Biomek 2000.
(§4) ATP, Tween™ 20, 4-(2-hydroxyethyl)-1-piperazineethanesulfonic acid (HEPES) were purchased from Roche Molecular Biochemicals, MgCl2 and MnCl2 were purchased from Merck Eurolab, Tris(2-carboxyethyl)phosphine hydrochloride (TCEP) was purchased from Pierce, 384 Well low volume fluorescence plates was purchased from Falcon.
(§5) At first the enzyme is pre-incubated for 15 min. at 15° C. in aqueous solution with corresponding amounts of inhibitors according to this invention. Then the phosphorylation reaction is started by adding a reaction mixture, containing ATP, Peptide and PT66, and subsequent shaking. The proceeding of this reaction is immediately monitored using time resolved fluorescence spectroscopy in a suitable well plate reader.
(§6) The IC50-values can be obtained from the reaction rates by using a non-linear curve fit (XLfit software (ID Business Solution Ltd., Guilford, Surrey, UK))

[1] = molecular target: T2, Src (p60^c-src, partially purified) (Homo sapiens, UniProt P12931); assay: SRC-Inhibitor-Assay (time-resolved fluorescence kinase assay), Src; format: biochemical; settings: ATP 5 μM, peptide 10 μM, enzyme 2.5 U/ml, pre-incubated 15 min at 15° C.
T2 construct: purchased UBI, Upstate Biotech, Inc
T2 sequence (P12931 whole entry, species assumed): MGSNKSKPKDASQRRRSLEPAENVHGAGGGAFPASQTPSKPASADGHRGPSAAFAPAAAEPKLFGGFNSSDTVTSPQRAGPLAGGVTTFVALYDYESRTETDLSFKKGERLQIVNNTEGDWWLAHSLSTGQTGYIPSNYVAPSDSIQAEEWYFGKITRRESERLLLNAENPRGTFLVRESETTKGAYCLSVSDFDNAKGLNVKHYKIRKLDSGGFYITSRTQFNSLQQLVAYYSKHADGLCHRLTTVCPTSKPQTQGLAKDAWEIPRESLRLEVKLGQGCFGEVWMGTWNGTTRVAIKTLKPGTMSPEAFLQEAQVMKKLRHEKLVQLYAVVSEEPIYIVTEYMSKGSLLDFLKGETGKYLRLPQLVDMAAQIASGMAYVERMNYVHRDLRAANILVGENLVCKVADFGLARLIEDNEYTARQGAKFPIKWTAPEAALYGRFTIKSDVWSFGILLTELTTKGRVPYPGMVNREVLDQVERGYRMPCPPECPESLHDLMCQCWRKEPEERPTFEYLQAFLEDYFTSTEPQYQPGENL
Text: as §1, §2, §3, §4, §5, §6

T1 sequence (P06239 whole entry, species assumed): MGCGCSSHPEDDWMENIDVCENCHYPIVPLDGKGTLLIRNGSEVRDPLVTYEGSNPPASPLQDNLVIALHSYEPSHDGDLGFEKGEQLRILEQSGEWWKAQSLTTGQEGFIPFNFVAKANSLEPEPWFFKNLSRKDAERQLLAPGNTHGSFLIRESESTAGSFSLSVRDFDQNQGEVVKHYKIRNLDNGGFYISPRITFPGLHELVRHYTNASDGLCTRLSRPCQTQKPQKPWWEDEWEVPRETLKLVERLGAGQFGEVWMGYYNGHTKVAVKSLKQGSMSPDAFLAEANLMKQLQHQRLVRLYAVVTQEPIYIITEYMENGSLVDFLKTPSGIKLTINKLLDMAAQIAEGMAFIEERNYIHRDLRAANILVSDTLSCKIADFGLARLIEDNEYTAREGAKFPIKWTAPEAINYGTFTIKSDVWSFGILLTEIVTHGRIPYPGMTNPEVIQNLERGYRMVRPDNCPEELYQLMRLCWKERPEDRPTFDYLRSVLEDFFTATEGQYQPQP

Compound | IC50 (Lck (p56^lck, active)) [nM] | IC50 [1] [nM]
O=C(Nc1cnc2[nH]c(-c3ccc(N4CCOCC4)cc3)nc2c1)c1ccccc1Cl [Example 4-5, 2-Chloro-N-[2-(4-morpholin-4-yl-phenyl)-3H-imidazo[4,5-b]pyridin-6-yl]-benzamide] | 49 | 7
Cc1cccc(Cl)c1C(=O)Nc1cnc2[nH]c(-c3ccccc3)cc2c1 [Example 12-5, 2-Chloro-6-methyl-N-(2-phenyl-1H-pyrrolo[2,3-b]pyridine-5-yl)-benzamide] | 40 to 9000 | 5 to 300
C[S+]([O-])c1cccc(-c2nc3cc(NC(=O)c4ccccc4Cl)cnc3[nH]2)c1 (centres unmarked) [Example 9-1, 2-Chloro-N-[2-(3-methanesulfinyl-phenyl)-3H-imidazo[4,5-b]pyridine-6-yl]-benzamide] | 40 to 9000 | 5 to 300
Cc1ccc(N)cc1C(=O)Nc1cnc2[nH]c(-c3ccccc3)nc2c1 [Example 2-1, 5-Amino-2-methyl-N-(2-phenyl-3H-imidazo[4,5-b]pyridin-6-yl)-benzamide] | 160 | 135
Cc1ccc([N+](=O)[O-])cc1C(=O)Nc1cnc2[nH]c(-c3ccccc3)nc2c1 [Example 1-4, 2-Methyl-5-nitro-N-(2-phenyl-3H-imidazo[4,5-b]pyridin-6-yl)-benzamide] | 1000 to 9000 | 300 to 3500
O=C(Nc1cnc2[nH]c(-c3ccccc3)nc2c1)c1ccccc1Cl [Example 1-1, 2-Chloro-N-(2-phenyl-3H-imidazo[4,5-b]pyridin-6-yl)-benzamide] | 481 | 21
Cc1ccc(-c2nc3cc(NC(=O)c4ccccc4Cl)cnc3[nH]2)cn1 [Example 7-2, 2-Chloro-N-[2-(6-methyl-pyridin-3-yl)-3H-imidazo[4,5-b]pyridine-6-yl]-benzamide] | 40 to 9000 | 5 to 300
CCN(CC)CCOc1ccc(-c2nc3cc(NC(=O)c4ccccc4Cl)cnc3[nH]2)cc1 [Example 4-1, 2-Chloro-N-{2-[4-(2-diethylamino-ethoxy)-phenyl]-3H-imidazo[4,5-b]pyridin-6-yl}-benzamide] | 40 to 9000 | 5 to 300
O=C(Nc1cnc2[nH]c(-c3cccs3)nc2c1)c1ccccc1Cl [Example 4-6, 2-Chloro-N-(2-thiophen-2-yl-3H-imidazo[4,5-b]pyridin-6-yl)-benzamide] | 40 to 9000 | 5 to 300
O=C(Nc1cnc2[nH]c(-c3ccc4[nH]cnc4c3)nc2c1)c1ccccc1Cl [Example 7-5, N-[2-(1H-Benzoimidazol-5-yl)-3H-imidazo[4,5-b]pyridine-6-yl]-2-chloro-benzamide] | 40 to 9000 | 5 to 300
Nc1ccc(Cl)c(C(=O)Nc2cnc3[nH]c(-c4ccccc4)nc3c2)c1 [Example 3-1, 5-Amino-2-chloro-N-(2-phenyl-3H-imidazo[4,5-b]pyridin-6-yl)-benzamide] | 40 to 9000 | 5 to 300
CSc1cccc(-c2nc3cc(NC(=O)c4ccccc4Cl)cnc3[nH]2)c1 [Example 7-3, 2-Chloro-N-[2-(3-methylsulfanyl-phenyl)-3H-imidazo[4,5-b]pyridine-6-yl]-benzamide] | 40 to 9000 | 5 to 300
O=C(Nc1cnc2[nH]c(-c3ccccc3)nc2c1)c1cc([N+](=O)[O-])ccc1Cl [Example 1-5, 2-Chloro-5-nitro-N-(2-phenyl-3H-imidazo[4,5-b]pyridin-6-yl)-benzamide] | 1000 to 9000 | 300 to 3500
COCCOc1ccc(-c2cc3cc(NC(=O)c4ccccc4OC)cnc3[nH]2)cc1 [Example 12-14, 2-Methoxy-N-{2-[4-(2-methoxy-ethoxy)-phenyl]-1H-pyrrolo[2,3-b]pyridin-5-yl}-benzamide] | 40 to 9000 | 5 to 300
O=C(Nc1cnc2[nH]c(-c3ccccc3)cc2c1)c1ccccc1Cl [Example 12-1, 2-Chloro-N-(2-phenyl-1H-pyrrolo[2,3-b]pyridine-5-yl)-benzamide] | 40 to 9000 | 5 to 300
COCC(COC)NC(=O)c1cccc(-c2nc3cc(NC(=O)c4ccccc4Cl)cnc3[nH]2)c1 [Example 6-3, 2-Chloro-N-(2-{3-[2-methoxy-1-methoxymethyl-ethylcarbamoyl]-phenyl}-3H-imidazo[4,5-b]pyridin-6-yl)-benzamide] | 40 to 9000 | 5 to 300

Compound | IC50 (Lck (p56^lck, active)) [nM] | IC50 [1] [nM]
Cc1ccccc1C(=O)Nc1cnc2[nH]c(-c3ccccc3)cc2c1 [Example 12-7, 2-Methyl-N-(2-phenyl-1H-pyrrolo[2,3-b]pyridine-5-yl)-benzamide] | 40 to 9000 | 5 to 300
Nc1cccc(-c2nc3cc(NC(=O)c4ccccc4Cl)cnc3[nH]2)c1 [Example 10-1, N-[2-(3-Amino-phenyl)-3H-imidazo[4,5-b]pyridine-6-yl]-2-chloro-benzamide] | 40 to 9000 | 5 to 300
CC(=O)Nc1cccc(-c2nc3cc(NC(=O)c4ccccc4Cl)cnc3[nH]2)c1 [Example 11-1, N-[2-(3-Acetylamino-phenyl)-3H-imidazo[4,5-b]pyridine-6-yl]-2-chloro-benzamide] | 40 to 9000 | 5 to 300
Cc1cccc(Cl)c1C(=O)Nc1cnc2[nH]c(-c3ccccc3)nc2c1 [Example 1-2, 2-Chloro-6-methyl-N-(2-phenyl-3H-imidazo[4,5-b]pyridin-6-yl)-benzamide] | 40 to 9000 | 5 to 300
O=C(Nc1cnc2[nH]c(-c3ccccc3)cc2c1)c1ccc(Cl)cc1Cl [Example 12-4, 2,4-Dichloro-N-(2-phenyl-1H-pyrrolo[2,3-b]pyridine-5-yl)-benzamide] | 40 to 9000 | 5 to 300
COCCCNc1cc(-c2nc3cc(NC(=O)c4ccccc4Cl)cnc3[nH]2)ccn1 [Example 14-1, 2-Chloro-N-{2-[2-(3-methoxy-propylamino)-pyridin-4-yl]-3H-imidazo[4,5-b]pyridin-6-yl}-benzamide] | 40 to 9000 | 5 to 300
COCCN(CCOC)c1ccc(-c2nc3cc(NC(=O)c4ccccc4Cl)cnc3[nH]2)cc1F [Example 13-1, N-(2-{4-[Bis-(2-methoxy-ethyl)-amino]-3-fluoro-phenyl}-3H-imidazo[4,5-b]pyridin-6-yl)-2-chloro-benzamide] | 40 to 9000 | 5 to 300
O=C(Nc1cnc2[nH]c(-c3ccc(N4CCOCC4)nc3)nc2c1)c1ccccc1Cl [Example 7-7, 2-Chloro-N-[2-(6-morpholin-4-yl-pyridin-3-yl)-3H-imidazo[4,5-b]pyridine-6-yl]-benzamide] | 40 to 9000 | 5 to 300
COc1cc(OC)cc(C(=O)Nc2cnc3[nH]c(-c4ccccc4)cc3c2)c1 [Example 12-12, 3,5-Dimethoxy-N-(2-phenyl-1H-pyrrolo[2,3-b]pyridine-5-yl)-benzamide] | 40 to 9000 | 5 to 300
COCCOc1ccc(-c2nc3cc(NC(=O)c4ccccc4Cl)cnc3[nH]2)cc1 [Example 4-2, 2-Chloro-N-{2-[4-(2-methoxy-ethoxy)-phenyl]-3H-imidazo[4,5-b]pyridin-6-yl}-benzamide] | 40 to 9000 | 5 to 300
O=C(Nc1cnc2[nH]c(-c3ccsc3)nc2c1)c1ccccc1Cl [Example 4-7, 2-Chloro-N-(2-thiophen-3-yl-3H-imidazo[4,5-b]pyridin-6-yl)-benzamide] | 40 to 9000 | 5 to 300
CN1CCN(c2ccc(-c3nc4cc(NC(=O)c5ccccc5Cl)cnc4[nH]3)cc2)CC1 [Example 4-8, 2-Chloro-N-{2-[4-(4-methyl-piperazin-1-yl)-phenyl]-3H-imidazo[4,5-b]pyridin-6-yl}-benzamide] | 40 to 9000 | 5 to 300
O=C(Nc1cnc2[nH]c(-c3ccccc3)nc2c1)c1ccccc1Br [Example 1-3, 2-Bromo-N-(2-phenyl-3H-imidazo[4,5-b]pyridin-6-yl)-benzamide] | 40 to 9000 | 5 to 300
COCCC(=O)Nc1cccc(-c2nc3cc(NC(=O)c4ccccc4Cl)cnc3[nH]2)c1 [Example 1-7, 2-Chloro-N-{2-[3-(3-methoxy-propionylamino)-phenyl]-3H-imidazo[4,5-b]pyridin-6-yl}-benzamide] | 40 to 9000 | 5 to 300
O=C(Nc1cnc2[nH]c(-c3ccccc3)nc2c1)c1ccccc1 [Example 1-6, N-(2-Phenyl-3H-imidazo[4,5-b]pyridin-6-yl)-benzamide] | 40 to 9000 | 5 to 300

Reference: US7618964B2, “Benzamide derivatives, their manufacture and use as pharmaceutical agents” (Hoffmann-La Roche Inc., priority 2004, dated 2009)
